Publication PMC12332667, “Role of Structural Modifications in Peptidomimetic Compounds as Potential Antimicrobial Agents against Staphylococcus aureus and Streptococcus pyogenes: Balancing Bioavailability, Safety, and Antimicrobial Activity” (ACS Omega, 2025)
≈ marks a conversion by molar mass, not a printed value.

Legend:
S. agalactiae ATCC 27956 = assay: MIC/MBC broth microdilution, S. agalactiae; type: cell-based, Streptococcus agalactiae; details: S. agalactiae
Outline: (§1)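 BHI broth microdilution (NCCLS); ~10^5 CFU/mL; 37 °C, 18 h. MIC = lowest conc., no visible growth (≥90% vs untreated). MBC = ≤3 colonies, ≥99.9% kill. Water/DMSO/EtOH solvent controls; technical triplicate ×3 biological repeats.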

fibroblasts (46BR.1N) = assay: LDH cytotoxicity test, fibroblasts; type: cell-based; details: 48 h, 50-150 μg/mL
Outline: (§2)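 Cytotoxicity as LDH release after 48 h serum-free treatment (50, 100, 150 μg/mL peptidomimetics) of 46BR.1N fibroblasts or HaCaT keratinocytes seeded at 5000 per well. Absorbance 450 nm; untreated set as 0% and Triton X-100 1% as maximal release; Mann–Whitney U test, p ≤ 0.05.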

S. cohnii c.i. = assay: MIC/MBC broth microdilution, S. cohnii; type: cell-based, Staphylococcus cohnii
Outline: as §1

E. coli ATCC 25922 = assay: MIC/MBC broth microdilution, E. coli; type: cell-based, Escherichia coli
Outline: as §1

S. aureus ATCC 43300 = assay: MIC/MBC broth microdilution, S. aureus; type: cell-based, Staphylococcus aureus; details: S. aureus
[1] = system: human dermal fibroblast cell line (46BR.1N); assay: XTT cell proliferation assay, fibroblasts; type: cell-based; details: XTT, 48 and 72 h, 0.01–150 μg/mL
Outline: (§3)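 Proliferation was read as XTT absorbance at 490 nm after 4 h of reagent incubation, following 48 or 72 h of peptide exposure in serum-free HG-DMEM (37 °C, 5% CO2). The 72 h arm included a half-medium change with second peptide dose at 48 h. Significance by Mann–Whitney U, p ≤ 0.05.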

[2] = Hydrophobicity by reverse-phase chromatography; type: physicochemical; details: acetonitrile content in the mobile phase at the retention time
Excerpt: Reverse-phase chromatography was employed to assess the hydrophobicity characteristics of the peptidomimetics. Hydrophobicity was quantified by determining the acetonitrile content in the mobile phase at the retention time of a peptidyl derivative (Table S2). The least hydrophobic compound (40% acetonitrile) was A-198, which aligns with the calculations of hydrophobicity by SwissADME and pkCSM (Table ). Next in the hydrophobicity sequence were A-197, A-220, A-219, A-174, and A-221, eluting with 42.5-43.9% of acetonitrile. Then there were followed by […], and A-179, with the acetonitrile percentage of 44.8-49.8. The compounds A-176, A-20, A-152, A-134, and A-210 needed over 50% of acetonitrile to be eluted from the column.

[3] = system: immortalized human keratinocytes (HaCaT); assay: LDH cytotoxicity test, keratinocytes; type: cell-based; details: 48 h, 50-150 μg/mL
Outline: as §2

[4] = system: K. pneumoniae ATCC 700603; assay: MIC/MBC broth microdilution, K. pneumoniae; type: cell-based
Outline: as §1

P. aeruginosa ATCC 10145 = assay: MIC/MBC broth microdilution, P. aeruginosa; type: cell-based
Outline: as §1

S. schleiferi c.i. = assay: MIC/MBC broth microdilution, S. schleiferi; type: cell-based, Staphylococcus schleiferi
Outline: as §1

S. mutans c.i. = assay: MIC/MBC broth microdilution, S. mutans; type: cell-based, Streptococcus mutans
Outline: as §1

S. pyogenes ATCC 19615 = assay: MIC/MBC broth microdilution, S. pyogenes; type: cell-based, Streptococcus pyogenes; details: S. pyogenes
Outline: as §1

P. vulgaris ATCC 6896 = assay: MIC/MBC broth microdilution, P. vulgaris; type: cell-based, Proteus vulgaris
Outline: as §1

[5] = system: immortalized human HaCaT keratinocytes; assay: XTT cell proliferation assay, keratinocytes; type: cell-based; details: XTT, 48 and 72 h, 0.01–150 μg/mL
Outline: as §3

E. faecalis c.i. = assay: MIC/MBC broth microdilution, E. faecalis; type: cell-based, Enterococcus faecalis
Outline: as §1

## CC(C)[C@@H](CNC(=O)/C=C/c1ccccc1)NC(=O)[C@H](Cc1c[nH]cn1)NC(=O)[C@H](CCCCN)NC(=O)OCc1ccccc1 [Compound A-174]
S. agalactiae ATCC 27956; H2O
  MBC: 512 µg/mL (≈ 810 µM)
  MIC: 512 µg/mL (≈ 810 µM)
S. agalactiae ATCC 27956; water additive DMSO
  MBC: 512 µg/mL (≈ 810 µM)
  MIC: 512 µg/mL (≈ 810 µM)
S. agalactiae ATCC 27956; water additive EtOH
  MBC: 512 µg/mL (≈ 810 µM)
  MIC: 256 µg/mL (≈ 405 µM)
Fibroblasts (46BR.1N)
  cytotoxicity (LDH), in words: no cytotoxicity
S. cohnii c.i.; H2O
  MBC: 256 µg/mL (≈ 405 µM)
  MIC: 256 µg/mL (≈ 405 µM)
S. cohnii c.i.; water additive DMSO
  MBC: 256 µg/mL (≈ 405 µM)
S. cohnii c.i.; water additive EtOH
  MBC: 256 µg/mL (≈ 405 µM)
E. coli ATCC 25922; H2O
  MIC: > 512 µg/mL
E. coli ATCC 25922; water additive DMSO
  MIC: > 512 µg/mL
E. coli ATCC 25922; water additive EtOH
  MIC: > 512 µg/mL
S. aureus ATCC 43300; H2O
  MBC: 512 µg/mL (≈ 810 µM)
  MIC: 256 µg/mL (≈ 405 µM)
S. aureus ATCC 43300; water additive DMSO
  MBC: 512 µg/mL (≈ 810 µM)
  MIC: 512 µg/mL (≈ 810 µM)
S. aureus ATCC 43300; water additive EtOH
  MBC: 512 µg/mL (≈ 810 µM)
  MIC: 512 µg/mL (≈ 810 µM)
[1]
  effect on proliferation, in words: did not exert any negative impact
[2]
  % AcCN (acetonitrile required for elution from the column): 42.9%
[3]
  cytotoxicity (LDH), in words: no cytotoxicity
[4]; H2O
  MIC: > 512 µg/mL
[4]; water additive DMSO
  MIC: > 512 µg/mL
[4]; water additive EtOH
  MIC: > 512 µg/mL
P. aeruginosa ATCC 10145; H2O
  MIC: > 512 µg/mL
P. aeruginosa ATCC 10145; water additive DMSO
  MIC: > 512 µg/mL
P. aeruginosa ATCC 10145; water additive EtOH
  MBC: > 512 µg/mL
  MIC: 512 µg/mL (≈ 810 µM)
S. schleiferi c.i.; H2O
  MIC: > 512 µg/mL
S. schleiferi c.i.; water additive DMSO
  MIC: > 512 µg/mL
S. schleiferi c.i.; water additive EtOH
  MBC: 512 µg/mL (≈ 810 µM)
  MIC: 512 µg/mL (≈ 810 µM)
S. mutans c.i.; H2O
  MIC: > 512 µg/mL
S. mutans c.i.; water additive DMSO
  MIC: > 512 µg/mL
S. mutans c.i.; water additive EtOH
  MIC: > 512 µg/mL
S. pyogenes ATCC 19615; H2O
  MBC: 256 µg/mL (≈ 405 µM)
S. pyogenes ATCC 19615; water additive DMSO
  MBC: 256 µg/mL (≈ 405 µM)
S. pyogenes ATCC 19615; water additive EtOH
  MBC: 256 µg/mL (≈ 405 µM)
P. vulgaris ATCC 6896; H2O
  MIC: > 512 µg/mL
P. vulgaris ATCC 6896; water additive DMSO
  MIC: > 512 µg/mL
P. vulgaris ATCC 6896; water additive EtOH
  MBC: > 512 µg/mL
  MIC: 512 µg/mL (≈ 810 µM)
[5]
  effect on proliferation, in words: did not exert any negative impact
E. faecalis c.i.; H2O
  MIC: > 512 µg/mL
E. faecalis c.i.; water additive DMSO
  MIC: > 512 µg/mL
E. faecalis c.i.; water additive EtOH
  MIC: > 512 µg/mL
